molecular target: full-length human BTK (Homo sapiens (Human), UniProt Q06187); assay: BTK IC50 enzyme assay (microfluidic off-chip mobility shift kinase assay); assay type: biochemical; details: incubated for 90 min. at 27 C; read-out: Time Dependent BTK Enzyme Assay IC50
Protocol: The following describes a microfluidic, off-chip mobility shift kinase assay used to measure inherent potency of compounds against BTK enzyme. Compounds described by embodiments of the present invention were assayed using this protocol and the data from the same is recorded in Table 2 within the column labeled: “Time Dependent BTK Enzyme Assay IC50”.
Stopped reactions were monitored at −2 PSI, −3000 V/−700 V in a LabChip 3000 plate reader from Caliper Life Sciences, a PerkinElmer Company (Hopkinton, Mass.), and the activity was measured by off-chip mobility shift assay measuring the charge/mass difference between substrate and product resulting from peptide phosphorylation. IC50 and efficacy were determined by plotting log [Inhibitor] vs. % Activity in GeneData Screener (Basel, Switzerland). […] I<1 uM and II>1 uM.

full-length human BTK, sequence (Q06187 whole entry): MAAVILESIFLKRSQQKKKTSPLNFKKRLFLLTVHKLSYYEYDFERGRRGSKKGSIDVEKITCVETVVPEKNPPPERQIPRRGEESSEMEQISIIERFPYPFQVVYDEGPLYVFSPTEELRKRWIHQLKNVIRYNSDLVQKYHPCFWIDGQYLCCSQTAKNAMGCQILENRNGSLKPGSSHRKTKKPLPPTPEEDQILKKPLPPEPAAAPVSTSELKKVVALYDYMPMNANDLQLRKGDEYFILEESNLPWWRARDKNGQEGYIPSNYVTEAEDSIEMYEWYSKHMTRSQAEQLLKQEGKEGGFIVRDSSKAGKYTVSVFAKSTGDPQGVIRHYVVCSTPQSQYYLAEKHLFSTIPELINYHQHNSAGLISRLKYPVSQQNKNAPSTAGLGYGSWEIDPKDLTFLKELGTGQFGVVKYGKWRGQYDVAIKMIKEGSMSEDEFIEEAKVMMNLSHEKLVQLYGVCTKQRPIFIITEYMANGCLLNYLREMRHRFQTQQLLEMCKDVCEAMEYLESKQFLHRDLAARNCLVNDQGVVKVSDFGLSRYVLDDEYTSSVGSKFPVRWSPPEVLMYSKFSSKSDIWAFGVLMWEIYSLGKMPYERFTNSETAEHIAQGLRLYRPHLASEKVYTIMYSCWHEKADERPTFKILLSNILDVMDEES

SMILES | IC50 [nM]
CC#CC(=O)Nc1cccc(-c2cnccc2Oc2ccc(Oc3ccccc3)cc2)c1 [A296, N-(3-(4-(4-phenoxyphenoxy)pyridin-3-yl)phenyl)but-2-ynamide] | < 1000
CCC(=O)Nc1ccc(Oc2ncnc(N)c2-c2ccc(Oc3ccccc3)cc2)cc1 [A308, N-(4-((6-amino-5-(4-phenoxyphenyl)pyrimidin-4-yl)oxy)phenyl)propionamide] | > 1000
C=CC(=O)N1CCC(CNc2ncnc(N)c2-c2ccc(OCc3ccccc3)cc2)C1 (stereo not shown) [A156, 1-(3-(((6-amino-5-(4-(benzyloxy)phenyl)pyrimidin-4-yl)amino)methyl)pyrrolidin-1-yl)prop-2-en-1-one] | < 1000
CN(C)C/C=C/C(=O)N1CCC(CNc2ncnc(N)c2-c2ccc(Oc3ccccc3)cc2)(C(=O)O)CC1 [A217, (E)-4-(((6-amino-5-(4-phenoxyphenyl)pyrimidin-4-yl)amino)methyl)-1-(4-(dimethylamino)but-2-enoyl)piperidine-4-carboxylic acid] | < 1000
C=CC(=O)Nc1cccc(-c2c(Oc3ccc(Oc4ccccc4)cc3)ccnc2N)c1 [A243, N-(3-(2-amino-4-(4-phenoxyphenoxy)pyridin-3-yl)phenyl)acrylamide] | < 100
C=CC(=O)Nc1cccc(Oc2ncnc(N)c2-c2ccc(C(=O)N3CCCC3)cc2)c1 [A285, N-(3-((6-amino-5-(4-(pyrrolidine-1-carbonyl)phenyl)pyrimidin-4-yl)oxy)phenyl)acrylamide] | < 1000
C=CC(=O)Nc1cccc(Oc2ncnc(N)c2-c2ccc(Oc3ccccn3)cc2)c1 [A162, N-(3-((6-amino-5-(4-(pyridin-2-yloxy)phenyl)pyrimidin-4-yl)oxy)phenyl)acrylamide] | < 100
C=CC(=O)N1CCO[C@@H](COc2ncnc(N)c2-c2ccc(Oc3ccc(C#N)cc3)cc2)C1 [A200, (R)-4-(4-(4-((4-acryloylmorpholin-2-yl)methoxy)-6-aminopyrimidin-5-yl)phenoxy)benzonitrile] | < 1000
C=CC(=O)Nc1ccc(-c2cnccc2Oc2ccc(Oc3ccccc3)cc2)cc1 [A281, N-(4-(4-(4-phenoxyphenoxy)pyridin-3-yl)phenyl)acrylamide] | < 1000
CCC(=O)NCc1ccc(-c2cnccc2Oc2ccc(Oc3ccccc3)cc2)cc1 [A324, N-(4-(4-(4-phenoxyphenoxy)pyridin-3-yl)benzyl)propionamide] | > 1000
C=CC(=O)N1CCC(CNc2ncnc(N)c2-c2ccc(OC)cc2)CC1 [A85, 1-(4-(((6-amino-5-(4-methoxyphenyl)pyrimidin-4-yl)amino)methyl)piperidin-1-yl)prop-2-en-1-one] | > 1000
Nc1cccc(-c2c(Oc3ccc(Oc4ccccc4)cc3)ccnc2N)c1 [A300, 3-(3-aminophenyl)-4-(4-phenoxyphenoxy)pyridin-2-amine] | < 1000
CN(C)C/C=C/C(=O)N[C@H]1C[C@H](Nc2ncnc(N)c2-c2ccc(Oc3ccccc3)cc2)C1 [A228, (E)-N-(1,3-trans-3-((6-amino-5-(4-phenoxyphenyl)pyrimidin-4-yl)amino)cyclobutyl)-4-(dimethylamino)but-2-enamide] | < 1000
C=CC(=O)Nc1cccc(Oc2ncnc(N)c2-c2ccc(NC(=O)c3ccccc3)cc2)c1 [A352, N-{4-[4-(3-Acryloylamino-phenoxy)-6-amino-pyrimidin-5-yl]-phenyl}-benzamide] | < 100
C=CC(=O)Nc1ccc(F)c(Oc2ncnc(N)c2-c2ccc(Oc3ccccc3)nc2)c1 [A161, N-(3-((6-amino-5-(6-phenoxypyridin-3-yl)pyrimidin-4-yl)oxy)-4-fluorophenyl)acrylamide] | < 100
C=CC(=O)NCCOc1ncnc(N)c1-c1ccc(Oc2ccccc2)cc1 [A27, N-(2-((6-amino-5-(4-phenoxyphenyl)pyrimidin-4-yl)oxy)ethyl)acrylamide] | > 1000
C=CC(=O)NC1(CNc2ncnc(N)c2-c2ccc(Oc3ccccc3)cc2)CCCC1 [A20, N-(1-(((6-amino-5-(4-phenoxyphenyl)pyrimidin-4-yl)amino)methyl)cyclopentyl)acrylamide] | > 1000
C=CC(=O)N1CCC(Nc2ncnc(N)c2-c2ccc(Oc3ccccc3)cc2)CC12CCC2 (stereo not shown) [A125, 1-(8-((6-amino-5-(4-phenoxyphenyl)pyrimidin-4-yl)amino)-5-azaspiro[3.5]nonan-5-yl)prop-2-en-1-one] | > 1000
C=CC(=O)N1CCC(CNc2ncnc(N)c2-c2ccc(Oc3cccnc3)cc2)CC1 [A96, 1-(4-(((6-amino-5-(4-(pyridin-3-yloxy)phenyl)pyrimidin-4-yl)amino)methyl)piperidin-1-yl)prop-2-en-1-one] | < 1000
CC#CC(=O)[C@H]1CCC[C@@H](Nc2ncnc(N)c2-c2ccc(Oc3ccccc3)cc2)C1 [A147, 1-((1S,3R)-3-(6-amino-5-(4-phenoxyphenyl)-pyrimidin-4-ylamino)-cyclohexyl)-but-2-yn-1-one] | < 100

SMILES | IC50 [nM]
C=CC(=O)N1CCCC(Nc2ncnc(N)c2-c2ccc(OCc3ccccc3)cc2)C1 (stereo not shown) [A269, 1-(3-((6-amino-5-(4-(benzyloxy)phenyl)pyrimidin-4-yl)amino)piperidin-1-yl)prop-2-en-1-one] | < 100
Nc1ccc(-c2cnccc2Oc2ccc(Oc3ccccc3)cc2)cc1 [A314, 4-(4-(4-phenoxyphenoxy)pyridin-3-yl)aniline] | > 1000
C=CC(=O)Nc1cccc(-c2cncnc2Nc2ccc(Oc3ccccc3)cc2)c1 [A283, N-(3-(4-((4-phenoxyphenyl)amino)pyrimidin-5-yl)phenyl)acrylamide] | < 1000
Nc1ncnc(NCC2CCN(C(=O)C3=CCC3)CC2)c1-c1ccc(Oc2ccccc2)cc1 [A42, (4-(((6-amino-5-(4-phenoxyphenyl)pyrimidin-4-yl)amino)methyl)piperidin-1-yl)(cyclobut-1-en-1-yl)methanone] | < 1000
C#CC(=O)N1CCC(CNc2ncnc(N)c2-c2ccc(Oc3ccccc3)cc2)CC1 [A46, 1-(4-(((6-amino-5-(4-phenoxyphenyl)pyrimidin-4-yl)amino)methyl)piperidin-1-yl)prop-2-yn-1-one] | < 100
C=CC(=O)N1CCC(CNc2ncnc(N)c2-c2ccc(Oc3ccc(C(F)(F)F)cc3)cc2)CC1 [A79, 1-(4-(((6-amino-5-(4-(4-(trifluoromethyl)phenoxy)phenyl)pyrimidin-4-yl)amino)methyl)piperidin-1-yl)prop-2-en-1-one] | < 1000
C=CC(=O)Nc1cccc(-c2c(N)ncnc2N[C@H](C)c2ccccc2)c1 [A311, (R)-N-(3-(4-amino-6-((1-phenylethyl)amino)pyrimidin-5-yl)phenyl)acrylamide] | > 1000
Nc1ncnc(Oc2cccc(NC(=O)CCl)c2)c1-c1ccc(OCc2ccccc2)c(F)c1 [A351, N-{3-[6-Amino-5-(4-benzyloxy-3-fluoro-phenyl)-pyrimidin-4-yloxy]-phenyl}-2-chloro-acetamide] | < 100
CN(C)C/C=C/C(=O)N[C@@H]1CCC[C@H](Nc2ncnc(N)c2-c2ccc(Oc3ccccc3)cc2)C1 (relative stereo) [A63, (E)-N-(cis-3-((6-amino-5-(4-phenoxyphenyl)pyrimidin-4-yl)amino)cyclohexyl)-4-(dimethylamino)but-2-enamide] | < 1000
C=CC(=O)N1CCC(CNc2ncnc(N)c2-c2cc(OC)c(OC)c(OC)c2)CC1 [A83, 1-(4-(((6-amino-5-(3,4,5-trimethoxyphenyl)pyrimidin-4-yl)amino)methyl)piperidin-1-yl)prop-2-en-1-one] | < 1000
CC#CC(=O)NCc1cccc(-c2cnccc2Oc2ccc(Oc3ccccc3)cc2)c1 [A304, N-(3-(4-(4-phenoxyphenoxy)pyridin-3-yl)benzyl)but-2-ynamide] | > 1000
C=CC(=O)NCCNc1ncnc(N)c1-c1ccc(Oc2ccccc2)cc1 [A18, N-(2-((6-amino-5-(4-phenoxyphenyl)pyrimidin-4-yl)amino)ethyl)acrylamide] | < 1000
C=CC(=O)Nc1cccc(-c2c(Oc3ccc(Oc4ccccc4)cc3)ccnc2C(N)=O)c1 [A272, 3-(3-acrylamidophenyl)-4-(4-phenoxyphenoxy)picolinamide] | < 100
C=CC(=O)NCc1cccc(-c2cnccc2Oc2ccc(Oc3ccccc3)cc2)c1 [A302, N-(3-(4-(4-phenoxyphenoxy)pyridin-3-yl)benzyl)acrylamide] | > 1000
C=CC(=O)Nc1cccc(-c2cnccc2Nc2ccc(Oc3ccccc3)cc2)c1 [A267, N-(3-(4-((4-phenoxyphenyl)amino)pyridin-3-yl)phenyl)acrylamide] | < 100
C=CC(=O)Nc1cccc(Oc2ncnc(N)c2-c2ccc(OCc3ccccc3OC)cc2)c1 [A254, N-(3-((6-amino-5-(4-((2-methoxybenzyl)oxy)phenyl)pyrimidin-4-yl)oxy)phenyl)acrylamide] | < 100
C=CC(=O)Nc1cccc(Oc2ncnc(N)c2-c2cnn(Cc3ccccc3C#N)c2)c1 [A194, N-(3-((6-amino-5-(1-(2-cyanobenzyl)-1H-pyrazol-4-yl)pyrimidin-4-yl)oxy)phenyl)acrylamide] | < 100
C=CC(=O)N1CCC(CNc2nc(N)ncc2-c2ccc(Oc3ccccc3)cc2)CC1 [A25, 1-(4-(((2-amino-5-(4-phenoxyphenyl)pyrimidin-4-yl)amino)methyl)piperidin-1-yl)prop-2-en-1-one] | > 1000
CC=CC(=O)[C@H]1CCC[C@H](Nc2ncnc(N)c2-c2ccc(Oc3ccccc3)cc2)C1 [A144, 1-((1S,3S)-3-(6-Amino-5-(4-phenoxyphenyl)-pyrimidin-4-ylamino)-cyclohexyl)-but-2-en-1-one] | < 100
C/C=C\C(=O)N1CCC(COc2ncnc(N)c2-c2ccc(Oc3ccccc3)cc2)CC1 [A43, (Z)-1-(4-(((6-amino-5-(4-phenoxyphenyl)pyrimidin-4-yl)oxy)methyl)piperidin-1-yl)but-2-en-1-one] | < 1000
